The numbers were not newly measured in patent US20260120816A1, “PREDICTION METHOD FOR PROTOPORPHYRINOGEN OXIDASE (PPO) INHIBITOR” (Pan Advanced Business Research, LLC, priority 2024, published 2026), which cites them from elsewhere.

For this data set the following is noted: control compound, Non Patent Literature 8.

For `CC(=O)c1c(C)nn(C)c1O` [compound B, 1-(5-hydroxy-1,3-dimethyl-1H-pyrazol-4-yl)ethanone], the herbicidal activity result is given as “no herbicidal activity at all”.
